# Measurements reported in PubChem BioAssay AID1963432 (Molecular Pharmacology Branch, DTP, NCI, 2024).
# System: SYO-1 complex spheroid growth, percent test/control
# Assay: Anticancer human tumor SYO-1 cell line growth inhibition [Asc];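 note: compound exposure lasted 7 days after spheroids grew 3 days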;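 for viability, T/C: 100% = DMSO vehicle control viability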
# Conditions: for IC50: curve of first compound; for viability, T/C: stronger effect = lower value
# How it was run: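 Complex solid-tumor spheroids incorporating human endothelial and mesenchymal stem cells received single agents or combinations over half-log dilution ranges anchored to clinical Cmax.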
smiles,measurement,setting,value
O=C(c1ccc(F)c(F)c1Nc1ccc(I)cc1F)N1CC(O)([C@@H]2CCCCN2)C1 + CCN1C(C(=O)NC23CCC(C(=O)O)(CC2)CC3)C(c2cccc(Cl)c2F)C2(C(=O)Nc3cc(Cl)ccc32)C12CCCCC2,IC50,second compound 0.00949 µM,> 1000 nM
same,IC50,second compound 0.03 µM,> 1000 nM
same,IC50,second compound 0.0949 µM,823 nM
same,IC50,second compound 0.3 µM,< 3.16 nM
same,IC50,second compound 0.949 µM,< 3.16 nM
same,IC50,second compound 3 µM,< 3.16 nM
same,"viability, T/C","second compound 0.00949 µM, first compound 0.00316 µM",115%
same,"viability, T/C","second compound 0.00949 µM, first compound 0.01 µM",103%
same,"viability, T/C","second compound 0.00949 µM, first compound 0.0316 µM",99.9%
same,"viability, T/C","second compound 0.00949 µM, first compound 0.1 µM",111%
same,"viability, T/C","second compound 0.00949 µM, first compound 0.316 µM",107%
same,"viability, T/C","second compound 0.00949 µM, first compound 1 µM",119%
same,"viability, T/C","second compound 0.03 µM, first compound 0.00316 µM",96.5%
same,"viability, T/C","second compound 0.03 µM, first compound 0.01 µM",99.5%
same,"viability, T/C","second compound 0.03 µM, first compound 0.0316 µM",102%
same,"viability, T/C","second compound 0.03 µM, first compound 0.1 µM",116%
same,"viability, T/C","second compound 0.03 µM, first compound 0.316 µM",116%
same,"viability, T/C","second compound 0.03 µM, first compound 1 µM",103%
same,"viability, T/C","second compound 0.0949 µM, first compound 0.00316 µM",83.5%
same,"viability, T/C","second compound 0.0949 µM, first compound 0.01 µM",93.1%
same,"viability, T/C","second compound 0.0949 µM, first compound 0.0316 µM",94.5%
same,"viability, T/C","second compound 0.0949 µM, first compound 0.1 µM",95%
same,"viability, T/C","second compound 0.0949 µM, first compound 0.316 µM",93.5%
same,"viability, T/C","second compound 0.0949 µM, first compound 1 µM",41.4%
same,"viability, T/C","second compound 0.3 µM, first compound 0.00316 µM",30.4%
same,"viability, T/C","second compound 0.3 µM, first compound 0.01 µM",23.9%
same,"viability, T/C","second compound 0.3 µM, first compound 0.0316 µM",24.8%
same,"viability, T/C","second compound 0.3 µM, first compound 0.1 µM",21.6%
same,"viability, T/C","second compound 0.3 µM, first compound 0.316 µM",10.2%
same,"viability, T/C","second compound 0.3 µM, first compound 1 µM",0.94%
same,"viability, T/C","second compound 0.949 µM, first compound 0.00316 µM",5.46%
same,"viability, T/C","second compound 0.949 µM, first compound 0.01 µM",5.3%
same,"viability, T/C","second compound 0.949 µM, first compound 0.0316 µM",3.35%
same,"viability, T/C","second compound 0.949 µM, first compound 0.1 µM",1.43%
same,"viability, T/C","second compound 0.949 µM, first compound 0.316 µM",0.7%
same,"viability, T/C","second compound 0.949 µM, first compound 1 µM",0.15%
same,"viability, T/C","second compound 3 µM, first compound 0.00316 µM",1.44%
same,"viability, T/C","second compound 3 µM, first compound 0.01 µM",2.44%
same,"viability, T/C","second compound 3 µM, first compound 0.0316 µM",1.3%
same,"viability, T/C","second compound 3 µM, first compound 0.1 µM",0.81%
same,"viability, T/C","second compound 3 µM, first compound 0.316 µM",0.22%
same,"viability, T/C","second compound 3 µM, first compound 1 µM",0.42%
